Two compounds from article PMC5913239, “Targeting GLP-1 receptor trafficking to improve agonist efficacy” (Nature Communications, 2018) can be followed below.

Assay [1] addresses T1, GLP-1R (Homo sapiens, UniProt P43220). The assay can be described thus: Agonist-induced GLP-1R internalization (cell surface receptor loss), post-stimulation Lumi4-Tb surface labeling, CHO-SNAP-GLP-1R cells. Format: cell-based. The following applies: ± 3 μM BETP, 30 min, 100 nM exendin-4, n=4.
Description: (§1) GLP-1R internalization and recycling in CHO-SNAP-GLP-1R cells was measured by surface labeling with anti-GLP-1R antibody or the SNAP-tag probe Lumi4-Tb (Cisbio). […] Residual surface expression was determined from peptide- vs. control-treated wells.
Assay [2] has as its target T1, GLP-1R. In words: β-arrestin-2 recruitment, PathHunter CHO-GLP-1R cells. Set-up: host or cells: PathHunter CHO-K1 reporter cells (purchased cell lines). The note with it: ± 3 μM BETP, n=3. Format: cell-based. In general terms: Activated receptors often draw arrestin, which recruitment assays turn into a signal.
Excerpt: A full GLP-1 dose response was included to establish the assay Emax.
The target in assay [3] is T1, GLP-1R. In words: cAMP accumulation (HTRF) in PathHunter CHO-GLP-1R cells. Format: cell-based. Set-up: host or cells: PathHunter CHO-K1 reporter cells (purchased cell lines). The note with it: ± 3 μM BETP, n=3. A general note: Cyclic AMP is a second messenger, typically raised through Gs and lowered through Gi signalling.
Description: Cyclic AMP accumulation was determined by HTRF (cAMP Dynamic 2, Cisbio). CHO-SNAP-GLP-1R were stimulated at 37 °C in serum-free DMEM. For dose responses, a full GLP-1 curve was included to establish the assay Emax with curve fitting to a four-parameter fit.
The target of assay [4] is T2, SNAP-GLP-1R (Homo sapiens, UniProt P43220). The assay can be described thus: Competitive association kinetics (TR-FRET, competition with exendin-4-FITC), CHO-SNAP-GLP-1R cells. The assay is classed as binding. Background: Time-resolved FRET reads energy transfer from a long-lived donor to a nearby acceptor.
Description: Association and dissociation rate constants were calculated using the kinetics of competitive binding algorithm in GraphPad Prism[43].
The target in assay [5] is T2, SNAP-GLP-1R. In words: GLP-1R recycling, plate reader surface labeling, CHO-SNAP-GLP-1R cells. Format: cell-based.
Description: as §1
Assay [6] relates to INS-1 832/3 cells. The assay can be described thus: Insulin secretion in INS-1 832/3 beta cells. The assay is classed as cell-based, rat. The following applies: INS-1 832/3, 16 h.
Description: Cells were pre-incubated overnight in 3 mM glucose medium.
For human islets, acute incubations were performed in KHB buffer at the indicated concentration of glucose ± agonist[28]. Overnight incubations were performed in complete RPMI plus 11 mM glucose ± 100 nM agonist. Samples were obtained for secreted and, where indicated, total insulin, and analyzed by HTRF (Cisbio). Percentage of release was calculated, and agonist-stimulated results expressed relative to 11 mM glucose alone as insulin stimulation index.

T1 sequence (P43220 24-463): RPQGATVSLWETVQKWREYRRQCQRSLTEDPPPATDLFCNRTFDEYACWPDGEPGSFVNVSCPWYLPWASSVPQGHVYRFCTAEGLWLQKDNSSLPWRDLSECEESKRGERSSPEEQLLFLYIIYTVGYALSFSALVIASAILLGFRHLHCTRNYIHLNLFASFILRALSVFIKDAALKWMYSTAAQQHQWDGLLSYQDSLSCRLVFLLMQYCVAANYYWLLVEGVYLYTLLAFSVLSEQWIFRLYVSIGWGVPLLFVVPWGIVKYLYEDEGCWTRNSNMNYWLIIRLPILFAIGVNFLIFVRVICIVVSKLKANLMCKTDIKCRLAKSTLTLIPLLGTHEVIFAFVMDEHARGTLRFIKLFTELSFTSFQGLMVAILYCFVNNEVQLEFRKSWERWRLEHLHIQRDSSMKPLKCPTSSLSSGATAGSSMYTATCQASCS
T2 sequence (P43220 24-463): as above

In the case of `CC[S+]([O-])c1nc(-c2cccc(OCc3ccccc3)c2)cc(C(F)(F)F)n1` (stereo not shown) [BETP, 4-(3-(benzyloxy)phenyl)-2-(ethylsulfinyl)-6-(trifluoro-methyl)pyrimidine], in assay [1], the “effect on exendin-4-induced internalization” value was “minimal effect”. In addition, the “effect on exendin-4 β-arrestin-2 recruitment response” value in assay [2] was “did not affect”. In addition, the “effect on exendin-4 cAMP response” value in assay [3] was “did not affect”. Moreover, in assay [4] (± 10 μM BETP, n=4), the “effect on exendin-4 association rate” value is reported as “without changes” and the “effect on exendin-4 residence time” value is given as “increased”. Moreover, the “effect on GLP-1R recycling after exendin-4 exposure” value in assay [5] (± 3 μM BETP, 60 min recycling, 100 nM exendin-4, n=4) is “slowed”. Moreover, in assay [6] (± 3 µM BETP, n=5), the “effect on exendin-4-induced prolonged insulin secretion” value is listed as “reduced”.

In the case of Dulaglutide, the “agonist residence time (comparison in words)” value in assay [4] (CHO-SNAP-GLP-1R, normalized to exendin-4-FITC response per assay, n=5) was “shorter than other compounds”. Besides, the “GLP-1R recycling (comparison in words)” value in assay [5] (100 nM, 60 min, with 10 μM exendin(9-39), n=5) is recorded as “modestly increased recycling”. Moreover, the “prolonged insulin secretion, comparison with licensed GLP-1R agonists” value in assay [6] (100 nM, tested in parallel, n=6) is reported as “closest to ex-phe1”.
